From ChEMBL document CHEMBL4130433, “Acridone-pyrimidine hybrids- design, synthesis, cytotoxicity studies in resistant and sensitive cancer cells and molecular docking studies” (Eur J Med Chem, 2017) come the findings set out here.

As usually defined, the IC50 is the concentration that inhibits the measured activity by half. Read a high IC50 as lower potency.

For one data set, the system named is MDA-MB-231. Description: Antiproliferative activity against human MDA-MB-231 cells after 72 hrs by MTT assay. Format: functional, cell-based. The settings on record: MDA-MB-231, 72 h. (In general: Tetrazolium dyes change colour on reduction, which living cells bring about.)
In the next data set the test system is 2008. The experiment in a line: Antiproliferative activity against resistant human 2008 cells clone 4 harboring MRP1 after 72 hrs by MTT assay. Format: functional, cell-based. The settings on record: Homo sapiens, 2008, 72 h.
The nature of data set [1]: Antiproliferative activity against human MCF7/DX cells after 72 hrs by MTT assay. The data set is classed as functional, cell-based.
Data set [2] deals with RAC-alpha serine/threonine-protein kinase (Homo sapiens, UniProt P31749). The experiment in a line: Inhibition of PH domain lacking AKT1 (unknown origin) using Tamara-labeled GRPRTSSFAEG peptide as substrate after 90 mins by fluorescence polarization IMAP assay.
Data set [3] relates to Rattus norvegicus. The experiment in a line: Toxicity in overnight fasted albino Wistar rat assessed as body weight at 300 mg/kg, po administered as single dose followed by fasting for 3 hrs measured on day 1 post dose (reference value: 162 +/- 8 g). The data set is classed as organism-based. The settings on record: in vivo.
Data set [4] deals with Rattus norvegicus. The experiment in a line: Toxicity in overnight fasted albino Wistar rat assessed as body weight at 2000 mg/kg, po administered as single dose followed by fasting for 3 hrs measured on day 1 post dose (reference value: 162 +/- 8 g). Format: organism-based. The settings on record: in vivo.
Data set [5] deals with Rattus norvegicus. Description: Toxicity in overnight fasted albino Wistar rat assessed as body weight at 300 mg/kg, po administered as single dose followed by fasting for 3 hrs measured on day 2 post dose (reference value: 165 +/- 12 g). The data set is classed as organism-based. The settings on record: in vivo.
The subject of data set [6] is Rattus norvegicus. The experiment in a line: Toxicity in overnight fasted albino Wistar rat assessed as body weight at 2000 mg/kg, po administered as single dose followed by fasting for 3 hrs measured on day 2 post dose (reference value: 165 +/- 12 g). Format: organism-based. The settings on record: in vivo.
The subject of data set [7] is Rattus norvegicus. Description: Toxicity in overnight fasted albino Wistar rat assessed as body weight at 5000 mg/kg, po administered as single dose followed by fasting for 3 hrs measured on day 2 post dose (reference value: 165 +/- 12 g). Format: organism-based. The settings on record: in vivo.
The subject of data set [8] is Rattus norvegicus. Description: Toxicity in overnight fasted albino Wistar rat assessed as body weight at 300 mg/kg, po administered as single dose followed by fasting for 3 hrs measured on day 3 post dose (reference value: 166 +/- 10 g). Format: organism-based. The settings on record: in vivo.
The test system of data set [9] is Rattus norvegicus. Description: Toxicity in overnight fasted albino Wistar rat assessed as body weight at 300 mg/kg, po administered as single dose followed by fasting for 3 hrs measured on day 4 post dose (reference value: 169 +/- 5 g). The data set is classed as organism-based. The settings on record: in vivo.
For data set [10], the system named is Rattus norvegicus. Description: Toxicity in overnight fasted albino Wistar rat assessed as body weight at 300 mg/kg, po administered as single dose followed by fasting for 3 hrs measured on day 5 post dose (reference value: 172 +/- 14 g). Format: organism-based. The settings on record: in vivo.
Data set [11] relates to Rattus norvegicus. The experiment in a line: Toxicity in overnight fasted albino Wistar rat assessed as body weight at 2000 mg/kg, po administered as single dose followed by fasting for 3 hrs measured on day 5 post dose (reference value: 172 +/- 14 g). The data set is classed as organism-based. The settings on record: in vivo.
Data set [12] concerns Rattus norvegicus. The experiment in a line: Toxicity in overnight fasted albino Wistar rat assessed as body weight at 300 mg/kg, po administered as single dose followed by fasting for 3 hrs measured on day 7 post dose (reference value: 175 +/- 10 g). The settings on record: in vivo. Format: organism-based.
The subject of data set [13] is Rattus norvegicus. Description: Toxicity in overnight fasted albino Wistar rat assessed as body weight at 5000 mg/kg, po administered as single dose followed by fasting for 3 hrs measured on day 7 post dose (reference value: 175 +/- 10 g). The settings on record: in vivo. Format: organism-based.
Data set [14] has as its system Rattus norvegicus. The experiment in a line: Toxicity in overnight fasted albino Wistar rat assessed as body weight at 2000 mg/kg, po administered as single dose followed by fasting for 3 hrs measured on day 8 post dose (reference value: 177 +/- 8 g). Format: organism-based. The settings on record: in vivo.
Data set [15] relates to Rattus norvegicus. The experiment in a line: Toxicity in overnight fasted albino Wistar rat assessed as body weight at 5000 mg/kg, po administered as single dose followed by fasting for 3 hrs measured on day 9 post dose (reference value: 180 +/- 12 g). Format: organism-based. The settings on record: in vivo.
Data set [16] concerns Rattus norvegicus. The experiment in a line: Toxicity in overnight fasted albino Wistar rat assessed as body weight at 300 mg/kg, po administered as single dose followed by fasting for 3 hrs measured on day 11 post dose (reference value: 185 +/- 8 g). Format: organism-based. The settings on record: in vivo.
Data set [17] relates to Rattus norvegicus. Description: Toxicity in overnight fasted albino Wistar rat assessed as body weight at 5000 mg/kg, po administered as single dose followed by fasting for 3 hrs measured on day 11 post dose (reference value: 185 +/- 8 g). The settings on record: in vivo. Format: organism-based.
For data set [18], the system named is Rattus norvegicus. The experiment in a line: Toxicity in overnight fasted albino Wistar rat assessed as body weight at 5000 mg/kg, po administered as single dose followed by fasting for 3 hrs measured on day 12 post dose (reference value: 186 +/- 13 g). Format: organism-based. The settings on record: in vivo.
The test system of data set [19] is Rattus norvegicus. Description: Toxicity in overnight fasted albino Wistar rat assessed as body weight at 300 mg/kg, po administered as single dose followed by fasting for 3 hrs measured on day 13 post dose (reference value: 188 +/- 16 g). The data set is classed as organism-based. The settings on record: in vivo.
Data set [20] has as its system Rattus norvegicus. Description: Toxicity in overnight fasted albino Wistar rat assessed as body weight at 300 mg/kg, po administered as single dose followed by fasting for 3 hrs measured on day 14 post dose (reference value: 191 +/- 18 g). The data set is classed as organism-based. The settings on record: in vivo.
The test system of another data set is A549. The experiment in a line: cells. The settings on record: Homo sapiens, A549, 72 h.

Chain of RAC-alpha serine/threonine-protein kinase (P31749 whole entry, the tested form may be a part): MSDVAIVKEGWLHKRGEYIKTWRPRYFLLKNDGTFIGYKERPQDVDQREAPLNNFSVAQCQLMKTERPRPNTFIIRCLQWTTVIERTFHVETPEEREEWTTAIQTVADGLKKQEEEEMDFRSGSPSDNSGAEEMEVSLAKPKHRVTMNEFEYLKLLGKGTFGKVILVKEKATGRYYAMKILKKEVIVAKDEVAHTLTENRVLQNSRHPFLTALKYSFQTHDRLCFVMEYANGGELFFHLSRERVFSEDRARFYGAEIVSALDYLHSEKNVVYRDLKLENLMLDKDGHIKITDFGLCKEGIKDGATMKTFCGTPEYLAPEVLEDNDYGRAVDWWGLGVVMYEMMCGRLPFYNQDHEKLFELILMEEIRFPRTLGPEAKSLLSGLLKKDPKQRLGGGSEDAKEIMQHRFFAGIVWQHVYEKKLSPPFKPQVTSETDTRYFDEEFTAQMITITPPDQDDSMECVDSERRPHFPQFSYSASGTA
Description for A549: Antiproliferative activity against human A549 cells after 72 hrs by MTT assay

In the case of `COC(=O)c1c(C)nc(NNC(=O)c2cccc3c(=O)c4ccccc4[nH]c23)nc1-c1ccc(OC)c(OC)c1`, the IC50 in the data set with MDA-MB-231 worked out at 62.9 µM; with 2008 it was 42 µM; in data set [1] it was 78 µM; in data set [2], 0.311 µM; with A549, 29.1 µM. For the same compound, the Activity was found to be 182 g in the data set with Rattus norvegicus [3]; 183 g in the data set with Rattus norvegicus [4]; 183 g in the data set with Rattus norvegicus [5]; 184 g in the data set on Rattus norvegicus [6]; 189 g with Rattus norvegicus [7]; 185 g in the data set with Rattus norvegicus [8]. The Activity worked out at 186 g in the data set on Rattus norvegicus [9]; 188 g in the data set with Rattus norvegicus [10]; 190 g in the data set on Rattus norvegicus [11]; 191 g in the data set with Rattus norvegicus [12]; 206 g with Rattus norvegicus [13]; 197 g in the data set on Rattus norvegicus [14]. The Activity in the data set with Rattus norvegicus [15] was 212 g; in the data set on Rattus norvegicus [16] it was 196 g; in the data set with Rattus norvegicus [17], 219 g; in the data set with Rattus norvegicus [18], 221 g; in the data set with Rattus norvegicus [19], 204 g; with Rattus norvegicus [20], 208 g.
